Results on five molecules are retold here after PMC9199881 (Clinical and Translational Science, 2022).

The test system of series [1] is healthy subjects. In words: Concentration-QTc. Type of series: in vivo, human. The conditions noted are these: Part B; 400 mg alone.
A short description of series [2]: Plasma pharmacokinetics, Part B.
Series [3] relates to healthy subjects. In words: Safety assessment. Type of series: in vivo, human. The conditions noted are these: Part B; 400 mg alone.
The test system of a further series is healthy volunteers. The conditions noted are these: cited from earlier work.
Series [4] has as its system healthy subjects. The conditions noted are these: 100 mg twice daily (b.i.d.); cited from earlier work.
Where [5] appears, read: human, in vivo, 400 mg, Mean (SD), 400 mg single dose alone.
The mark [6] stands for this setting: human, in vivo, 400 mg, Median (range), 400 mg single dose alone.

SMILES strings stand for the structures.

Usually AUC(0-t) stands for the area under the concentration-time curve up to a stated or last time point. High values mean high exposure, low ones low exposure. For orientation: AUC(0-inf) means the area under the concentration-time curve extrapolated to infinity. Low values mean low exposure, high ones high exposure. The Cmax is the highest concentration seen after dosing. A word on the Tmax: it is the time at which the peak concentration occurs. On to `COc1c(N2C[C@@H]3CCCN[C@@H]3C2)c(F)cc2c(=O)c(C(=O)O)cn(C3CC3)c12` [Moxifloxacin, moxifloxacin, reference compound], for which, in the series on healthy subjects [1], the “predicted ΔΔQTcF at the observed geometric mean Cmax” value is listed as 14.7 ms. For the same molecule, in series [2] (400 mg single dose alone), the “Tmax, Median (range)” value was 2.1 (0.6–10) h. Further, in series [2] (human, in vivo, 400 mg, AUC0–last, Mean (SD), 400 mg single dose alone), the AUC(0-t) came to 22700 ng·h/mL. Besides, in series [2] (human, in vivo, 400 mg, AUC0–∞, Mean (SD), 400 mg single dose alone), the AUC(0-inf) stood at 27400 ng·h/mL. In series [2] (setting [5]), the Cmax was 2360 ng/mL and the Tmax is 2.2 h. In series [2] (setting [6]), the highest level (Cmax) was 2310 ng/mL and the Tmax is roughly 2 h. This molecule also came in with a Cmax in series [2] (human, in vivo, 400 mg, range, single moxifloxacin 400 mg dose) of 1230 to 4080 ng/mL. Moreover, the “geometric mean peak concentration” value in series [2] (moxifloxacin 400 mg) was 2260 ng/mL. In addition, in the series with healthy subjects [3], the “Treatment-related TEAE: Abdominal pain, n (%)” value is recorded as 1 (2.8) n (%); the “Treatment-related TEAE: Diarrhea, n (%)” value is on record as 1 (2.8) n (%); the “Treatment-related TEAE: Dizziness, n (%)” value is reported as 1 (2.8) n (%); the “Treatment-related TEAE: Dysgeusia, n (%)” value is reported as 0 n (%). Moreover, in the series with healthy subjects [3], the “Treatment-related TEAE: Frequent bowel movements, n (%)” value was 0 n (%); the “Treatment-related TEAE: Gastrointestinal disorders, n (%)” value is 1 (2.8) n (%); the “Treatment-related TEAE: Headache, n (%)” value is listed as 0 n (%); the “Treatment-related TEAE: Herpex simplex, n (%)” value was 0 n (%). Moreover, in the series with healthy subjects [3], the “Treatment-related TEAE: Infections and infestations, n (%)” value is 1 (2.8) n (%); the “Treatment-related TEAE: Lethargy, n (%)” value is listed as 1 (2.8) n (%); the “Treatment-related TEAE: Nausea, n (%)” value was 1 (2.8) n (%); the “Treatment-related TEAE: Nervous system disorders, n (%)” value was 2 (5.6) n (%). Also, in the series on healthy subjects [3], the “Treatment-related TEAE: Somnolence, n (%)” value is 0 n (%); the “Treatment-related TEAE: Subjects with ≥1 TEAE, n (%)” value is on record as 3 (8.3) n (%); the “Treatment-related TEAE: Vomiting, n (%)” value is on record as 1 (2.8) n (%); the “incidence of treatment-related TEAEs” value is given as 8.3%. Also, the participants with diarrhea in the series with healthy subjects [3] worked out at 2.8%.
For the molecule `CC#CC(=O)N1CCC[C@H]1c1nc(-c2ccc(C(=O)Nc3ccccn3)cc2)c2c(N)nccn12` [acalabrutinib], the “prolongation of the QTc interval or clinically relevant ECG effects” value in the series with healthy volunteers is listed as “no prolongation of the QTc interval or clinically relevant ECG effects”.
As to `C=CC(=O)N1CCC(CNc2ncnc(N)c2-c2ccc(Oc3ccccc3)cc2)CC1` [evobrutinib], the “prolongation of the QTc interval or clinically relevant ECG effects” value in the series on healthy volunteers is listed as “no prolongation of the QTc interval or clinically relevant ECG effects”.
For the molecule `CC(C)c1nc(CN(C)C(=O)N[C@H](C(=O)N[C@@H](Cc2ccccc2)C[C@H](O)[C@H](Cc2ccccc2)NC(=O)OCc2cncs2)C(C)C)cs1` [ritonavir], the “effect on QT” value with healthy subjects [4] is on record as “did not alter QT”.
Consider `C=CC(=O)N1CCC([C@@H]2CCNc3c(C(N)=O)c(-c4ccc(Oc5ccccc5)cc4)nn32)CC1` [zanubrutinib], for which the “prolongation of the QTc interval or clinically relevant ECG effects” value in the series on healthy volunteers was “no prolongation of the QTc interval or clinically relevant ECG effects”.
